These results are taken from patent US8609729B2, “Method for treating macular degeneration” (Sucampo AG, priority 2009, dated 2013).

For orientation: viability means a per cent measure of how many cells are alive, often set against a control.

Common to all, as to type: cell-based
The test system of test [1] is Human retinal pigment epithelium cells (ARPE-19 cells). In words: Barrier function: passage of 3,000 Dalton FITC-labeled dextran from apical to basolateral media of tBH-treated ARPE-19 cells. The conditions noted are these: 100 nM Compound A plus 100 μM tBH; dextran added at 20 hours, fluorescence at 44 hours; FIG. 2. As to the method: (§1) Human retinal pigment epithelium cells (ARPE-19 cells, purchased from American Type Culture Collection (ATCC)) were used in the study. ARPE-19 cells were grown on Corning Transwell 0.4 μm pore size filters (Corning Incorporated, NY, USA) in Dulbecco's modified Eagles medium containing 10% fetal calf serum. Trans-Epithelial Resistance (TER) of the cultured cells was determined using an EVOM volt-ohm meter. The TER of the cultured cells was determined by subtracting the resistance value measured with the filter alone from the value measured with the cultured cells.
ARPE-19 cells grown until they reached a TER of approximately 50 Ohm/1.2 cm^2 were treated with 100 μM tBH in 0.1% decane, 100 nM Compound A in DMSO (0.1% final DMSO), or a combination of tBH plus Compound A (initial treatment). At 20 hours after the initial treatment, 3,000 Dalton FITC-labeled dextran was added at a concentration of 0.1 mg/ml to the apical surface of the cell culture and the culture was further incubated. Fluorescence of the media bathing the basolateral surface was then measured at 44 hours. Wavelengths for FITC were 494 ex/518 em.

Test [2] shares this test system. In words: Protection from light induced cell death in A2E containing RPE cells (WST-8 viability). The protocol:
Protection by Compound A from light induced cell death in pyridinium bis-retinoid (A2E) containing retinal pigment epithelium (RPE) cells
Human retinal pigment epithelium cells (ARPE-19 cells) were used in the study. ARPE-19 cells were maintained in DMEM/F12 medium (supplemented with 10% FBS and 1% Penicillin-Streptomycin Mixed Sol.) in 25 cm^2 or 75 cm^2 culture flask. For the experiment, the cells were seeded on multi-well chamber slides. After confirming the cells adhered to slide, the media were changed to pyridinium bis-retinoid (A2E) containing culture medium and the cells were cultured for 5-14 days The media were changed to phosphate buffered saline (containing A2E), and then the cells were exposed to blue light (430 nm) delivered from a halogen source for 20 min. Compound A dissolved in dimethyl sulfoxide was added 1 hr before the light: exposure (the final concentration was 10 and 50 nM). After the light exposure, the cells were cultured in the DMEM/F12 medium for 24 hours. The cells were then incubated in DMEM/F12 medium containing 10% WST-8 (without A2Z) for 4 hours. Absorbance at 450 nm was measured. An increase in the absorbance is indicative of cellular viability.
A general note: Tetrazolium assays rely on reduction of a dye to a coloured formazan, in cell work by metabolically active cells.

For test [3] the test system is unchanged. In words: Trans-Epithelial Resistance (TER) of ARPE-19 cells treated with tert-butyl hydroperoxide (tBH). To be noted: 100 nM Compound A plus 100 μM tBH; TER at 0, 6, 18, 24 and 48 hours; FIG. 1. The protocol:
as §1
The cells were grown until they reached a TER of approximately 50 Ohm/1.2 cm^2. They were then treated with 100 μM tert-butyl hydroperoxide (tBH) in 0.1% decane, 100 nM Compound A (isopropyl unoprostone, i.e. 13,14-dihydro-15-keto-20-ethyl-PGF2α isopropyl ester) in DMSO (0.1% final DMSO), or a combination of tBH plus Compound A. TER was determined at 0, 6, 18, 24 and 48 hours after the treatment.

As to `CCCCCCCC(=O)CC[C@@H]1[C@@H](C/C=C\CCCC(=O)OC(C)C)[C@@H](O)C[C@H]1O` [Compound A, 13,14-dihydro-15-keto-20-ethyl-PGF2α isopropyl ester], in test [1], the “Effect on the loss of barrier function caused by tBH (passage of 3,000 Dalton fluorescent dextran)” value is reported as “protected against the loss of barrier function caused by tBH”. Further, the “Effect on cell death induced by A2E/light exposure” value in test [2] (10 and 50 nM, A2E + blue light exposure) is listed as “prevented cell death induced by A2E/light exposure”. Further, the viability at 0.01 µM in test [2] (Homo sapiens, ARPE-19, 10 nM, A2E + light exposure (430 nm, 20 min), compound added 1 hr before light, WST-8 after 24 hours) was 90%. In addition, in test [2] (Homo sapiens, ARPE-19, 50 nM, A2E + light exposure (430 nm, 20 min), compound added 1 hr before light, WST-8 after 24 hours), the viability at 0.05 µM came out at 89%. Further, the “Effect on the loss of TER caused by tBH” value in test [3] is “protected against the loss of TER caused by tBH”.
